Assay results: PubChem BioAssay (NCI)
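1) Cells in 96-well plates. 2) Compound, 48 h, 5 concentrations. 3) Linear interpolation between surrounding doses. 4) Unreached endpoint = highest concentration. GI50: concentration for 50% inhibition of growth. TGI: total growth inhibition.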

Legend:
Assay in all cases: NCI-60 cell line screen, 48 h
[1] = test system: 786-0 renal
[2] = test system: A498 renal
[3] = test system: A549 NSCLC
[4] = test system: ACHN renal
[5] = test system: BT-549 breast
[6] = test system: CAKI-1 renal
[7] = test system: CCRF-CEM leukemia
[8] = test system: COLO 205 colon
[9] = test system: DU-145 prostate
[10] = test system: EKVX NSCLC
[11] = test system: HCC-2998 colon
[12] = test system: HCT-116 colon
[13] = test system: HCT-15 colon
[14] = test system: HL-60(TB) leukemia
[15] = test system: HOP-62 NSCLC
[16] = test system: HOP-92 NSCLC
[17] = test system: HS 578T breast
[18] = test system: HT29 colon
[19] = test system: IGROV1 ovarian
[20] = test system: K-562 leukemia
[21] = test system: KM12 colon
[22] = test system: LOX IMVI melanoma
[23] = test system: M14 melanoma
[24] = test system: MALME-3M melanoma
[25] = test system: MCF7 breast
[26] = test system: MDA-MB-231 breast
[27] = test system: MDA-MB-435
[28] = test system: MOLT-4 leukemia
[29] = test system: NCI-H226 lung
[30] = test system: NCI-H23 lung
[31] = test system: NCI-H460 lung
[32] = test system: NCI-H522 lung
[33] = test system: NCI/ADR-RES ovarian
[34] = test system: OVCAR-3 ovarian
[35] = test system: OVCAR-4 ovarian
[36] = test system: OVCAR-5 ovarian
[37] = test system: OVCAR-8 ovarian
[38] = test system: PC-3 prostate
[39] = test system: RPMI-8226 leukemia
[40] = test system: RXF 393 renal
[41] = test system: SF-268 CNS
[42] = test system: SF-295 CNS
[43] = test system: SF-539 CNS
[44] = test system: SK-MEL-2 melanoma
[45] = test system: SK-MEL-28 melanoma
[46] = test system: SK-MEL-5 melanoma
[47] = test system: SK-OV-3 ovarian
[48] = test system: SN12C renal
[49] = test system: SNB-19 CNS
[50] = test system: SNB-75 CNS
[51] = test system: SR leukemia
[52] = test system: SW-620 colon
[53] = test system: T-47D breast
[54] = test system: TK-10 renal
[55] = test system: U251 CNS
[56] = test system: UACC-257 melanoma
[57] = test system: UACC-62 melanoma
[58] = test system: UO-31 renal

Cc1noc2c1-c1ccccc1C(c1ccc(Cl)cc1)=N[C@H]2CC(N)=O
GI50 [1]: 10.9 µM | TGI [1]: > 100 µM | GI50 [2]: 0.235 µM | TGI [2]: 15.5 µM | GI50 [3]: 18.3 µM | TGI [3]: > 100 µM | GI50 [4]: 6.37 µM | TGI [4]: > 100 µM | GI50 [5]: 10.9 µM | TGI [5]: > 100 µM | GI50 [6]: 0.368 µM | TGI [6]: > 100 µM | GI50 [7]: 14.8 µM | TGI [7]: > 100 µM | GI50 [8]: 0.646 µM | TGI [8]: > 51.7 µM | GI50 [9]: 79.3 µM | TGI [9]: > 100 µM | GI50 [10]: 14 µM | TGI [10]: > 100 µM | GI50 [11]: 9.5 µM | TGI [11]: > 100 µM | GI50 [12]: 5.34 µM | TGI [12]: > 100 µM | GI50 [13]: 2.49 µM | TGI [13]: > 100 µM | GI50 [14]: 0.398 µM | TGI [14]: > 33.8 µM | GI50 [15]: 2.6 µM | TGI [15]: > 100 µM | GI50 [16]: 0.54 µM | TGI [16]: > 100 µM | GI50 [17]: 1.59 µM | TGI [17]: > 85.6 µM | GI50 [18]: 1.35 µM | TGI [18]: > 100 µM | GI50 [19]: 6.03 µM | TGI [19]: > 100 µM | GI50 [20]: 4.67 µM | TGI [20]: > 100 µM | GI50 [21]: 12.1 µM | TGI [21]: > 100 µM | GI50 [22]: 2.3 µM | TGI [22]: > 100 µM | GI50 [23]: 2.37 µM | TGI [23]: > 100 µM | GI50 [24]: 5.17 µM | TGI [24]: > 100 µM | GI50 [25]: 0.732 µM | TGI [25]: > 100 µM | GI50 [26]: 7.56 µM | TGI [26]: > 100 µM | GI50 [27]: 2.78 µM | TGI [27]: > 100 µM | GI50 [28]: 7.71 µM | TGI [28]: > 100 µM | GI50 [29]: 11.6 µM | TGI [29]: > 100 µM | GI50 [30]: 5.31 µM | TGI [30]: > 100 µM | GI50 [31]: 16.7 µM | TGI [31]: > 100 µM | GI50 [32]: 8.2 µM | TGI [32]: > 100 µM | GI50 [33]: 2.74 µM | TGI [33]: > 100 µM | GI50 [34]: 3.75 µM | TGI [34]: > 100 µM | GI50 [35]: 4.35 µM | TGI [35]: > 100 µM | GI50 [36]: > 100 µM | TGI [36]: > 100 µM | GI50 [37]: 15.2 µM | TGI [37]: > 100 µM | GI50 [38]: 12 µM | TGI [38]: > 100 µM | GI50 [39]: 0.362 µM | TGI [39]: 10.7 µM | GI50 [40]: 13 µM | TGI [40]: 72.7 µM | GI50 [41]: 33.8 µM | TGI [41]: > 100 µM | GI50 [42]: 4.71 µM | TGI [42]: > 100 µM | GI50 [43]: 5.17 µM | TGI [43]: > 100 µM | GI50 [44]: 18.1 µM | TGI [44]: > 100 µM | GI50 [45]: 7.38 µM | TGI [45]: > 100 µM | GI50 [46]: 6.96 µM | TGI [46]: > 75.2 µM | GI50 [47]: 1.54 µM | TGI [47]: > 65.7 µM | GI50 [48]: 38.2 µM | TGI [48]: > 100 µM | GI50 [49]: 11 µM | TGI [49]: > 100 µM | GI50 [50]: 0.134 µM | TGI [50]: > 100 µM | GI50 [51]: 0.976 µM | TGI [51]: > 70.6 µM | GI50 [52]: 26.1 µM | TGI [52]: > 100 µM | GI50 [53]: 3.48 µM | TGI [53]: > 100 µM | GI50 [54]: 0.486 µM | TGI [54]: > 100 µM | GI50 [55]: 20 µM | TGI [55]: > 100 µM | GI50 [56]: 7.4 µM | TGI [56]: > 100 µM | GI50 [57]: 0.462 µM | TGI [57]: > 58.9 µM | GI50 [58]: 0.283 µM | TGI [58]: > 100 µM
